Experimental data: patent US8501924B2, “Nucleophosmin protein (NPM) mutants, corresponding gene sequences and uses thereof” (priority 2004, dated 2013)
Entries after “also recorded” stand apart in the source; their conditions may differ.

How the values were obtained:
[1] = molecular target: T1, Crm1 (Mus musculus, UniProt Q6P5F9); experiment: Inhibition of Crm1-dependent nuclear exportation in NIH-3T3 cells transfected with eGFP-NPM constructs; type: cell-based, murine; conditions: for sub-cellular localization of NPM mutant proteins after treatment (confocal microscopy): transfected NIH3T3 cells (HI299 or NIH3T3), leptomycin B 20 ng/ml
T1 construct: endogenous in cells; host or cells: NIH-3T3 cells, transfected only with eGFP-NPM reporter constructs
T1 sequence (Q6P5F9 whole entry): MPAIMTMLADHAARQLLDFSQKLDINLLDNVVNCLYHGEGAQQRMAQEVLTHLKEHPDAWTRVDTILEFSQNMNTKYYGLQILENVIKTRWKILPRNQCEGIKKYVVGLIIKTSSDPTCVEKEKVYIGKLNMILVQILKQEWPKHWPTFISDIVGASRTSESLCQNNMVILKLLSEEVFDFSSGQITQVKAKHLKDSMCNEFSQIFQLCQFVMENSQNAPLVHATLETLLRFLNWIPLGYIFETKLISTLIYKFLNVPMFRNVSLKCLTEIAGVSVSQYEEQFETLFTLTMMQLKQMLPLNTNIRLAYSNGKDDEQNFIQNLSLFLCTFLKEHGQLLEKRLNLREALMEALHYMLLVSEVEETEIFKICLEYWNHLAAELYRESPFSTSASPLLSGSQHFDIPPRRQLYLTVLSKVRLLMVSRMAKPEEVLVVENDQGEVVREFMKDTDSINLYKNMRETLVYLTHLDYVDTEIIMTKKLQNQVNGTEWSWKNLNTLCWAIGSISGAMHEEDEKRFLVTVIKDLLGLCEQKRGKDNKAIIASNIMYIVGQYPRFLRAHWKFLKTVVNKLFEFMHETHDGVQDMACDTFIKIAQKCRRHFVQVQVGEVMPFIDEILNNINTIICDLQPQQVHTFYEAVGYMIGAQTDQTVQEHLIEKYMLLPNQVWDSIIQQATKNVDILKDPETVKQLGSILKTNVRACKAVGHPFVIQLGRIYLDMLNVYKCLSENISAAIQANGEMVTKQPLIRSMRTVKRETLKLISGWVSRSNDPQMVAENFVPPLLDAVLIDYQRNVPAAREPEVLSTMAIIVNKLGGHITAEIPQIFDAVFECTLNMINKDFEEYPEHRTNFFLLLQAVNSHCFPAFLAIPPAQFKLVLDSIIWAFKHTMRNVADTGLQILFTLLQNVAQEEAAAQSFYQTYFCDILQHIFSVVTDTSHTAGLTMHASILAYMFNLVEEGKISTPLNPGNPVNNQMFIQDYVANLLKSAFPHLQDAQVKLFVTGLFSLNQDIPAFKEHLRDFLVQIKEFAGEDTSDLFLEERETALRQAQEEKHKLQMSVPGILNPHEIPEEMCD
Procedure: NIH-3T3 cells were transfected using Lipofectamin 2000 (Invitrogen Carlsbad, Calif., USA) following the manufacturer instructions. After 24 hours, the cells grown on the slide were incubated with cycloeximide (Merck Biosciences Ltd, Nottingham UK) 10 micro grams/ml (30 minutes) and leptomycin B (Merck Biosciences Ltd, Nottingham UK) 20 ng/ml (5 hours), or other Crm1 inhibitors such as ratjadons A and C (Alexis Biochemicals, Carlsbad, Calif., USA) 20 ng/ml (5 hours).
The cells were fixed in 4% paraformaldehyde (10 minutes) for immunofluorescence and confocal microscope analysis.
For “time course” experiments, transfected cells were transferred inside an Attofluor chamber (Molecular Probes, Eugene, Oreg., USA) and were observed using a MRC-1024 confocal apparatus (Biorad Cambridge, UK) assembled on an Olympus IMT-2 microscope. The images of a single section were recorded before and after the addition of leptomicin B, at 60 second intervals, using the time-series function of Laser-Sharp program (BioRad). The excitation wavelength was 488 nm and images were detected using a filter from 505 to 550 nm on the PMT2.
The images were processed and analysed using the well known ImageJ program (Rasband WS, Image J, U.S. National Institutes of Health, Bethesda, Md., USA, http://rsb.info.nih.gov/ij/, 1997-2005).
For western-blotting analyses of the sub-cellular distribution of GFP-NPM mutant A protein, NIH-3T3 cells transfected with GFP vector or with GFP-NPM mutant A, as described above, were incubated with leptomicin B 20 ng/ml (or with methanol as control) without cycloeximide for 3 or 6 hours. Then cells were harvested, washed with PBS and lysed in hypotonic buffer according to the method of Schreiber et al. (1989). The supernatant was preserved as cytoplasmic fraction. The pellet, containing nuclei, was again washed with the hypotonic buffer, then solubilised in a hypertonic buffer and boiled in a solution containing SDS before loading.
Equivalent dilutions (with the same cell number) of cytoplasmic and nuclear fractions were loaded, blotted on nitrocellulose and incubated with an anti-GFP monoclonal antibody (Roche, Indianapolis, Ind., USA) for Western-blot analysis of the distribution of GFP-NPM mutant A.

[2] = molecular target: T2, Crm1 (Homo sapiens, UniProt O14980); experiment: Inhibition of Crm1-dependent nuclear exportation in transfected H1299 cells; type: cell-based; conditions: HI299 cells
T2 sequence (O14980 whole entry): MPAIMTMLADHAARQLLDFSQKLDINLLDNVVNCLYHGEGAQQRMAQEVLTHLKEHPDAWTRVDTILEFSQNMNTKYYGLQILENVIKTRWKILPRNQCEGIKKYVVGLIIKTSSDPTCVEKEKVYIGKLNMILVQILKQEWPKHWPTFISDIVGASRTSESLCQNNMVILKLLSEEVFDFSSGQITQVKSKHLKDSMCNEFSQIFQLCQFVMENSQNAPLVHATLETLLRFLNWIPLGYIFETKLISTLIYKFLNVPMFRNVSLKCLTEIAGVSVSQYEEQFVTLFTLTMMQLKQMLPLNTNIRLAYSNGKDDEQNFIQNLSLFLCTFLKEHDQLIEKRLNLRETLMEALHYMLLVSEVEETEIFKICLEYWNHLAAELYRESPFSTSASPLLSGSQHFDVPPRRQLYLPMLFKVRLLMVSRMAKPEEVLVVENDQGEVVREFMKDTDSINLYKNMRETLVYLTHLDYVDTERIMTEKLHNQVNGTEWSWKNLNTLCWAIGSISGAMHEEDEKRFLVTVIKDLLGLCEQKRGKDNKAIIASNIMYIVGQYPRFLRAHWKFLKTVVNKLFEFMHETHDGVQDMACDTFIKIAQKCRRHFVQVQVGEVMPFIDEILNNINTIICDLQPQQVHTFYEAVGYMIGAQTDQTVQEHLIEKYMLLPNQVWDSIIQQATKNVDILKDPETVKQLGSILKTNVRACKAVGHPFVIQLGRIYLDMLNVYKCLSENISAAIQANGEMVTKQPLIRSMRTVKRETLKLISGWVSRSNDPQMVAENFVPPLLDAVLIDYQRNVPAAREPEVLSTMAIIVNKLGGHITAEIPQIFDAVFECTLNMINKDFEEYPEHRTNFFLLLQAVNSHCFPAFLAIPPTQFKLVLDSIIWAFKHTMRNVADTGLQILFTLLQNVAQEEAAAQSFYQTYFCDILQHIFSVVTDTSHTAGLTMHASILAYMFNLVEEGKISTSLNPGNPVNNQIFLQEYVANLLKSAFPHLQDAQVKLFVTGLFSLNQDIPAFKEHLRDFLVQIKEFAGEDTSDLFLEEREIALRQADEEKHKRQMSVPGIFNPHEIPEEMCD
Procedure: The H1299 cells were seeded on the surface of six-well plates 24 hours before transfection. 5 μg of expression vector encoding for wild type HA-NPM, GFP-NPM-mutant A, or both, were transfected using the precipitation method with calcium-phosphate. After 24 hours, the cells were treated with 20 nM leptomycin B, a Crml specific inhibitor (Sigma, St. Louis, Mo., USA) for 8 hours or not treated, respectively. The cells then were fixed in 4% paraformaldehyde for the immunofluorescence study.
The DAPI staining was used to visualise nucleuses of H1299 cells transfected with the GFP-NPM-mutant A and with GFP-NPM wt. For Flag-HA constructs, the fixed cells were made permeable with 0.2% Triton-X 100 (10 minutes) followed by blocking with 10% anti-goat serum (30 minutes). Then primary anti-HA antibody was added (1:1000, Roche Indianapolis, Ind., USA) for 1 hour followed by incubation for 30 minutes with the secondary Alexa-568 antibody (1:1000, Molecular Probes, Oregon, USA). The images were taken using a digital camera with the Spot 4.09 program (Diagnostic Instruments, Sterling Heights, Mich., USA).

[3] = molecular target: T2, Crm1; experiment: Nuclear re-localization of mutant NPM in OCI/AML3 cells; type: cell-based; conditions: OCI/AML3, mutation A, LMB 20 ng/ml
[4] = molecular target: T2, Crm1; experiment: Nuclear re-localization of NPM in leukaemic cells of NPMc+ AML patients (mutation A); type: cell-based; conditions: NPMc+ AML patient cells, leptomycin B 20 ng/ml
Procedure: Cells deriving from two patients with NPMc+AML (carrying the mutation A) and from OCI/AML3 cellular line were harvested in medium (10^6 cell/ml in 24-well plates) and incubated at 37° C. with 5% CO2 […]. After the incubation overnight with leptomycin B (20 ng/ml), the cells were washed with PBS and centrifuged. The cell pellet was fixed in B5 and paraffin for the immunostaining.
The NPM coloration of paraffin embedded sections of AML cases containing the mutation A was carried out with monoclonal anti-NPM antibodies followed by a Alexa 488 conjugated secondary (Molecular Probes, Oregon, USA); the nuclei were contra-stained with propidium iodide. The images were taken with a confocal microscope Zeiss LSM 510 (Carl Zeiss, Jena, Del.), using laser excitation wavelengths at 488 nm (for ALexa 488), 543 nm (for Texas Red and the propidium iodide) and 633 nm (for TO-PRO-3), respectively. The laser intensity tuning, diameter of pinholes, and configuration of the light detection were set to achieve the best signal/noise ratio and avoid fluorescence crossover. The images were then transferred to a SGI Octane workstation (Silicon graphics, Mountain View, Calif., USA) for further elaboration; 3D reconstruction was made with the shade or iso-surface method using the Imaris program (Bitplane, Zurich, CH).

[5] = NIH-3T3 cells, with and without LMB

## CCC(=C/[C@H](C)C/C=C/C(C)=C/[C@@H](C)C(=O)[C@@H](C)[C@H](O)[C@@H](C)C/C(C)=C/C(=O)O)/C=C/[C@@H]1OC(=O)C=C[C@@H]1C [Leptomycin B, leptomycin B]
[1]; NIH-3T3 cells, after Leptomicin B
  re-localization of type E NPM mutant (tryptophan 288 kept): not only at nucleoplasma but also at nucleolus level
[1]; NIH-3T3 cells, eGFP-NPMmutA, 20 minutes after LMB
  mutant type A re-localized in nucleus: About 50%
[1]; NIH-3T3 cells, eGFP-NPMmutA, LMB
  time for the whole re-localization process to be completed: 1 h
[1]; NIH-3T3 cells, leptomicin B 20 ng/ml, 3 or 6 hours, no cycloeximide
  Western blot sub-cellular distribution of GFP-NPM mutant A: progressively accumulates in the pellet containing nucleuses
[1]; NIH-3T3 cells, time course after addition of LMB
  eGFP-NPMmutA fluorescence in regions of interest over time: reduction of fluorescence in cytoplasm and Golgi area and concomitant fluorescence increase in nucleoplasm
[1]; [5]
  localization of GFP-NPMwt: localizes in the nucleoli both in the presence and in the absence of LMB
  localization of NPM mut A no-NES: localized in the nucleoplasm both in presence and in absence of LMB
[1]; NIH-3T3 cells, with and without Leptomicin B
  localization of mutant A with both tryptophans re-inserted (C288W+A290W): locates completely in nucleoli, independently from the presence of Leptomicin B
[1]; listed as LMB
  sub-cellular localization of NPM mutant proteins after treatment (confocal microscopy): repositions in nucleoplasm
[1]; listed as Leptomicin B
  sub-cellular localization of NPM mutant proteins after treatment (confocal microscopy): re-localized from the cytoplasmic to the nuclear compartment (nucleoplasm); also recorded: re-localized in the nucleus and, specifically, in nucleoplasm
[2]; in the presence of LMB 20 nM, 8 hours
  localization of eGFP NPM mutants A to D: completely replaced in the nucleus in the presence of LMB
[2]; with and without LMB
  localization of eGFP-NPMwt: localized in nucleoli both in the presence and in the absence of LMB
[3]
  NPM localization in OCI/AML3 cells (376 staining): re-localization of NPM in the nucleoplasm
[4]
  NPM localization in purified leukaemic cells (376 staining, confocal): NPM is in nucleus again
